Laboratory results from ChEMBL document CHEMBL5143585, “Discovery and characterization of benzyloxy piperidine based dopamine 4 receptor antagonists” (Bioorg Med Chem Lett, 2022).

system: not listed separately; experiment: Ratio of drug level in rat brain to plasma at 0.25 mg/kg, iv measured on day 2 at 0.25 hrs post-dose; format: ADME, organism-based; settings: time 2 day, read-out: BPR

| Kp at 48 h | Compound |
| --- | --- |
| 7.2 | Cn1cnc2cc(CN3CCC(OCc4cccc(C(F)(F)F)c4)CC3)ccc21 |
| 16.1 | Fc1ccc(COC2CCN(Cc3ccc4[nH]cnc4c3)CC2)cc1F |
| 9.9 | Fc1cc(COC2CCN(Cc3ccc4[nH]cnc4c3)CC2)ccc1Cl |
| 11.6 | Cn1ncc2cc(CN3CCC(OCc4ccc(F)c(F)c4)CC3)ccc21 |
| 2.9 | Cc1c(Cl)cccc1NC(=O)CN1CCC(OCc2ccc(F)c(F)c2)CC1 |
| 28.9 | Fc1ccc(COC2CCN(Cc3cc4ccc(Cl)cc4[nH]3)CC2)cc1F |

system: not listed separately; experiment: Half-life in rat at 0.25 mg/kg, iv measured for 24 hrs; format: ADME, organism-based; settings: in vivo

| t1/2 [h] | Compound |
| --- | --- |
| 1.1 | Cn1cnc2cc(CN3CCC(OCc4cccc(C(F)(F)F)c4)CC3)ccc21 |
| 1.2 | Fc1ccc(COC2CCN(Cc3ccc4[nH]cnc4c3)CC2)cc1F |
| 1.1 | Fc1cc(COC2CCN(Cc3ccc4[nH]cnc4c3)CC2)ccc1Cl |
| 1.4 | Cn1ncc2cc(CN3CCC(OCc4ccc(F)c(F)c4)CC3)ccc21 |
| 4.4 | Cc1c(Cl)cccc1NC(=O)CN1CCC(OCc2ccc(F)c(F)c2)CC1 |
| 1.8 | Fc1ccc(COC2CCN(Cc3cc4ccc(Cl)cc4[nH]3)CC2)cc1F |

system: not listed separately; experiment: Plasma concentration in rat at 0.25 mg/kg, iv measured on day 2 at 0.25 hrs post-dose; format: ADME, organism-based; settings: time 2 day

| concentration at 48 h [ng/mL] | Compound |
| --- | --- |
| 30.1 | Cn1cnc2cc(CN3CCC(OCc4cccc(C(F)(F)F)c4)CC3)ccc21 |
| 7 | Fc1ccc(COC2CCN(Cc3ccc4[nH]cnc4c3)CC2)cc1F |
| 14.1 | Fc1cc(COC2CCN(Cc3ccc4[nH]cnc4c3)CC2)ccc1Cl |
| 30.6 | Cn1ncc2cc(CN3CCC(OCc4ccc(F)c(F)c4)CC3)ccc21 |
| 45.8 | Cc1c(Cl)cccc1NC(=O)CN1CCC(OCc2ccc(F)c(F)c2)CC1 |
| 19.4 | Fc1ccc(COC2CCN(Cc3cc4ccc(Cl)cc4[nH]3)CC2)cc1F |

system: not listed separately; experiment: Initial plasma concentration in rat at 0.25 mg/kg, iv; format: ADME, organism-based; settings: in vivo, iv, 0.25 mg/kg

| C0 [ng/mL] | Compound |
| --- | --- |
| 60.2 | Cn1cnc2cc(CN3CCC(OCc4cccc(C(F)(F)F)c4)CC3)ccc21 |
| 23.5 | Fc1cc(COC2CCN(Cc3ccc4[nH]cnc4c3)CC2)ccc1Cl |
| 32.5 | Cn1ncc2cc(CN3CCC(OCc4ccc(F)c(F)c4)CC3)ccc21 |
| 5.5 | Cc1c(Cl)cccc1NC(=O)CN1CCC(OCc2ccc(F)c(F)c2)CC1 |

same assay, conditions: plasma, read-out: C0

| C0 [ng/mL] | Compound |
| --- | --- |
| 12.6 | Fc1ccc(COC2CCN(Cc3cc4ccc(Cl)cc4[nH]3)CC2)cc1F |

system: not listed separately; experiment: Drug uptake in rat brain at 0.25 mg/kg, iv measured on day 2 at 0.25 hrs post-dose; format: ADME, organism-based; settings: time 2 day, read-out: Drug uptake

| concentration at 48 h [ng/g] | Compound |
| --- | --- |
| 214 | Cn1cnc2cc(CN3CCC(OCc4cccc(C(F)(F)F)c4)CC3)ccc21 |
| 112 | Fc1ccc(COC2CCN(Cc3ccc4[nH]cnc4c3)CC2)cc1F |
| 139 | Fc1cc(COC2CCN(Cc3ccc4[nH]cnc4c3)CC2)ccc1Cl |
| 355 | Cn1ncc2cc(CN3CCC(OCc4ccc(F)c(F)c4)CC3)ccc21 |
| 134 | Cc1c(Cl)cccc1NC(=O)CN1CCC(OCc2ccc(F)c(F)c2)CC1 |
| 562 | Fc1ccc(COC2CCN(Cc3cc4ccc(Cl)cc4[nH]3)CC2)cc1F |

system: not listed separately; experiment: Protein binding in mouse plasma assessed as unbound fraction; format: ADME, cell-free; settings: not given

| Fu [%] | Compound |
| --- | --- |
| 5.7 | Cn1cnc2cc(CN3CCC(OCc4cccc(C(F)(F)F)c4)CC3)ccc21 |
| 40.1 | Fc1ccc(COC2CCN(Cc3ccc4[nH]cnc4c3)CC2)cc1F |
| 17.1 | Fc1cc(COC2CCN(Cc3ccc4[nH]cnc4c3)CC2)ccc1Cl |
| 16.6 | Cn1ncc2cc(CN3CCC(OCc4ccc(F)c(F)c4)CC3)ccc21 |
| 1.5 | Cc1c(Cl)cccc1NC(=O)CN1CCC(OCc2ccc(F)c(F)c2)CC1 |
| 0.4 | Fc1ccc(COC2CCN(Cc3cc4ccc(Cl)cc4[nH]3)CC2)cc1F |

system: not listed separately; experiment: Volume of distribution at steady state in rat at 0.25 mg/kg, iv measured for 24 hrs; format: ADME, organism-based; settings: in vivo

| Vdss [L/kg] | Compound |
| --- | --- |
| 6.3 | Cn1cnc2cc(CN3CCC(OCc4cccc(C(F)(F)F)c4)CC3)ccc21 |
| 19.2 | Fc1ccc(COC2CCN(Cc3ccc4[nH]cnc4c3)CC2)cc1F |
| 13.6 | Fc1cc(COC2CCN(Cc3ccc4[nH]cnc4c3)CC2)ccc1Cl |
| 12.9 | Cn1ncc2cc(CN3CCC(OCc4ccc(F)c(F)c4)CC3)ccc21 |
| 5.5 | Cc1c(Cl)cccc1NC(=O)CN1CCC(OCc2ccc(F)c(F)c2)CC1 |

system: not listed separately; experiment: AUC in rat at 0.25 mg/kg, iv measured for 24 hrs; format: ADME, organism-based; parameters: time 24 hrs, dose 0.25 mg/kg, route iv; settings: in vivo

| AUC [ng·h/mL] | Compound |
| --- | --- |
| 149 | Cn1cnc2cc(CN3CCC(OCc4cccc(C(F)(F)F)c4)CC3)ccc21 |
| 65.6 | Fc1ccc(COC2CCN(Cc3ccc4[nH]cnc4c3)CC2)cc1F |
| 79.9 | Fc1cc(COC2CCN(Cc3ccc4[nH]cnc4c3)CC2)ccc1Cl |
| 112 | Cn1ncc2cc(CN3CCC(OCc4ccc(F)c(F)c4)CC3)ccc21 |
| 747 | Cc1c(Cl)cccc1NC(=O)CN1CCC(OCc2ccc(F)c(F)c2)CC1 |
| 126 | Fc1ccc(COC2CCN(Cc3cc4ccc(Cl)cc4[nH]3)CC2)cc1F |

biological target: T1, D(1B) dopamine receptor (Homo sapiens, UniProt P21918); experiment: Displacement of [3H]-SCH23390 from human D5 receptor expressed in HEK293 cell membrane by competitive inhibition based analysis; format: cell membranes; settings: not given
T1 sequence (P21918 whole entry): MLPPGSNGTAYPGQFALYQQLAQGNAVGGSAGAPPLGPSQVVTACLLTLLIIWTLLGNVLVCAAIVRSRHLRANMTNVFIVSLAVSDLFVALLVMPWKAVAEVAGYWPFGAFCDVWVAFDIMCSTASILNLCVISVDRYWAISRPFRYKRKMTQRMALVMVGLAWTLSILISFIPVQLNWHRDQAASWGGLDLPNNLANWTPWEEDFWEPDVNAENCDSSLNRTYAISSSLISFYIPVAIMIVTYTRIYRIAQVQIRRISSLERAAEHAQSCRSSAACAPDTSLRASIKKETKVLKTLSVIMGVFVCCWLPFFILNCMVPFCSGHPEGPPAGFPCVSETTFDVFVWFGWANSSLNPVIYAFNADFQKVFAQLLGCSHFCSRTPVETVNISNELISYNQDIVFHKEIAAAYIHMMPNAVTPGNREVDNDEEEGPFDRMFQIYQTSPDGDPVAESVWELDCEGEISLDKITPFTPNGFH

| Ki [nM] | Compound |
| --- | --- |
| 3990 | Fc1ccc(COC2CCN(Cc3cc4ccc(Cl)cc4[nH]3)CC2)cc1F |

biological target: T2, D(3) dopamine receptor (Homo sapiens, UniProt P35462); experiment: Displacement of [3H]N-methylspiperone from human D3 receptor expressed in HEK293 cell membrane by competitive inhibition based analysis; format: cell membranes; settings: not given
T2 sequence (P35462 whole entry): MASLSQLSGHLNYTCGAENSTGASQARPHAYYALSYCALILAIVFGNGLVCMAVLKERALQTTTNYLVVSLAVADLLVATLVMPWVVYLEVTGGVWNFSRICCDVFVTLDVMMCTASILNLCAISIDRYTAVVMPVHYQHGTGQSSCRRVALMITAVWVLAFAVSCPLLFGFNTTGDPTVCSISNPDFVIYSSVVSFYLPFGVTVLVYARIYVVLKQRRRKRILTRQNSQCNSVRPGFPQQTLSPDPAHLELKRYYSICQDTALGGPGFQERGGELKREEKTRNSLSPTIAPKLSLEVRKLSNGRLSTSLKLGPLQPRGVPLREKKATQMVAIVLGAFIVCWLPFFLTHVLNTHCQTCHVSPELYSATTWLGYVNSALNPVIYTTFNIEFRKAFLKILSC

| Ki [nM] | Compound |
| --- | --- |
| 4080 | Fc1ccc(COC2CCN(Cc3ccc4[nH]cnc4c3)CC2)cc1F |
| 2460 | Cc1c(Cl)cccc1NC(=O)CN1CCC(OCc2ccc(F)c(F)c2)CC1 |
| 965 | Fc1ccc(COC2CCN(Cc3cc4ccc(Cl)cc4[nH]3)CC2)cc1F |

biological target: T3, D(4) dopamine receptor (Homo sapiens, UniProt P21917); experiment: Displacement of [3H]N-methylspiperone from human D4 receptor expressed in HEK293 cell membrane by competitive inhibition based analysis; format: cell membranes; settings: not given
T3 sequence (P21917 whole entry): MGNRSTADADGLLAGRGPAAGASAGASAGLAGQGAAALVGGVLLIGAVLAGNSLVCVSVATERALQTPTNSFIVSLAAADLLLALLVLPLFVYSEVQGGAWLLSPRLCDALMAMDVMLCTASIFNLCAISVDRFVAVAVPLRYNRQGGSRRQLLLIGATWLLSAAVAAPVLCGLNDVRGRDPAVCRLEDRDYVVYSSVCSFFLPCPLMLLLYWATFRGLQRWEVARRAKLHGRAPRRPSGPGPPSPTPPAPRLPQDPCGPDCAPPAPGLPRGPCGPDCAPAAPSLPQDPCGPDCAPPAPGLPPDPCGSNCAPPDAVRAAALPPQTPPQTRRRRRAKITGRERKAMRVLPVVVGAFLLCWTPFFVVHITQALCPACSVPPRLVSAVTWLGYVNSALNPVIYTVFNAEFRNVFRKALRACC

| IC50 [nM] | Ki [nM] | Compound |
| --- | --- | --- |
| 646 | 640 | Cn1cnc2cc(CN3CCC(OCc4cccc(C(F)(F)F)c4)CC3)ccc21 |
| 4270 | 4280 | Fc1ccc(COC2CCN(Cc3ccc4[nH]cnc4c3)CC2)cc1F |
| 1510 | 1520 | Fc1cc(COC2CCN(Cc3ccc4[nH]cnc4c3)CC2)ccc1Cl |
| 275 | 276 | Cn1ncc2cc(CN3CCC(OCc4ccc(F)c(F)c4)CC3)ccc21 |
| 302 | 299 | Cc1c(Cl)cccc1NC(=O)CN1CCC(OCc2ccc(F)c(F)c2)CC1 |
| 148 | 149 | Fc1ccc(COC2CCN(Cc3cc4ccc(Cl)cc4[nH]3)CC2)cc1F |

biological target: T1, D(1B) dopamine receptor; experiment: Displacement of [3H]-SCH23390 from human D5 receptor expressed in HEK293 cell membrane at 10 uM by competitive inhibition based analysis; format: cell membranes; settings: not given

| inhibition [%] | Compound |
| --- | --- |
| < 50 | Fc1ccc(COC2CCN(Cc3ccc4[nH]cnc4c3)CC2)cc1F |
| < 50 | Fc1cc(COC2CCN(Cc3ccc4[nH]cnc4c3)CC2)ccc1Cl |
| < 50 | Cn1ncc2cc(CN3CCC(OCc4ccc(F)c(F)c4)CC3)ccc21 |
| < 50 | Cc1c(Cl)cccc1NC(=O)CN1CCC(OCc2ccc(F)c(F)c2)CC1 |

same assay, conditions: filed as antagonist

| inhibition [%] | Compound |
| --- | --- |
| 64 | Fc1ccc(COC2CCN(Cc3cc4ccc(Cl)cc4[nH]3)CC2)cc1F |

biological target: D(1A) dopamine receptor (Homo sapiens, UniProt P21728); experiment: Displacement of [3H]-SCH23390 from human D1 receptor expressed in HEK293 cell membrane at 10 uM by competitive inhibition based analysis; format: cell membranes; settings: not given
Sequence (P21728 whole entry): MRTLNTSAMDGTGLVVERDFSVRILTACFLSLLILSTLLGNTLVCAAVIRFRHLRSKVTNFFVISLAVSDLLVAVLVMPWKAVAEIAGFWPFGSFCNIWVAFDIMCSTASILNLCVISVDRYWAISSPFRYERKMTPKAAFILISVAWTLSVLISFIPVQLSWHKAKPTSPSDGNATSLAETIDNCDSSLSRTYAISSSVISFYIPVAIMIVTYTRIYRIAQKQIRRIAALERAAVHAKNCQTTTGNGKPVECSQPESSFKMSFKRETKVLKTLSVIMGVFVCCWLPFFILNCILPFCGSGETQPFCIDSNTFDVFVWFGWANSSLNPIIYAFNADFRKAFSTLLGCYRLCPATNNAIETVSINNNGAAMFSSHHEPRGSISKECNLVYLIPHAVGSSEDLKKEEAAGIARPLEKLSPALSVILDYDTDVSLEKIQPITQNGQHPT

| inhibition [%] | Compound |
| --- | --- |
| < 50 | Fc1ccc(COC2CCN(Cc3ccc4[nH]cnc4c3)CC2)cc1F |
| < 50 | Fc1cc(COC2CCN(Cc3ccc4[nH]cnc4c3)CC2)ccc1Cl |
| < 50 | Cn1ncc2cc(CN3CCC(OCc4ccc(F)c(F)c4)CC3)ccc21 |
| < 50 | Cc1c(Cl)cccc1NC(=O)CN1CCC(OCc2ccc(F)c(F)c2)CC1 |
| < 50 | Fc1ccc(COC2CCN(Cc3cc4ccc(Cl)cc4[nH]3)CC2)cc1F |

system: not listed separately; experiment: Protein binding in human plasma assessed as unbound fraction; format: ADME, cell-free; settings: not given

| Fu [%] | Compound |
| --- | --- |
| 1 | Cn1cnc2cc(CN3CCC(OCc4cccc(C(F)(F)F)c4)CC3)ccc21 |
| 22.9 | Fc1ccc(COC2CCN(Cc3ccc4[nH]cnc4c3)CC2)cc1F |
| 7.7 | Fc1cc(COC2CCN(Cc3ccc4[nH]cnc4c3)CC2)ccc1Cl |
| 3.6 | Cn1ncc2cc(CN3CCC(OCc4ccc(F)c(F)c4)CC3)ccc21 |
| 0.3 | Cc1c(Cl)cccc1NC(=O)CN1CCC(OCc2ccc(F)c(F)c2)CC1 |
| < 0.3 | Fc1ccc(COC2CCN(Cc3cc4ccc(Cl)cc4[nH]3)CC2)cc1F |

biological target: T2, D(3) dopamine receptor; experiment: Displacement of [3H]N-methylspiperone from human D3 receptor expressed in HEK293 cell membrane at 10 uM by competitive inhibition based analysis; format: cell membranes; settings: not given

| inhibition [%] | Compound |
| --- | --- |
| < 50 | Fc1cc(COC2CCN(Cc3ccc4[nH]cnc4c3)CC2)ccc1Cl |
| < 50 | Cn1ncc2cc(CN3CCC(OCc4ccc(F)c(F)c4)CC3)ccc21 |

same assay, conditions: filed as antagonist

| inhibition [%] | Compound |
| --- | --- |
| 57 | Fc1ccc(COC2CCN(Cc3ccc4[nH]cnc4c3)CC2)cc1F |
| 67 | Cc1c(Cl)cccc1NC(=O)CN1CCC(OCc2ccc(F)c(F)c2)CC1 |
| 73 | Fc1ccc(COC2CCN(Cc3cc4ccc(Cl)cc4[nH]3)CC2)cc1F |

biological target: D(2) dopamine receptor (Homo sapiens) (UniProt P14416); experiment: Displacement of [3H]N-methylspiperone from human D2 receptor expressed in HEK293 cell membrane at 10 uM by competitive inhibition based analysis; format: cell membranes; settings: not given
Sequence (P14416 whole entry): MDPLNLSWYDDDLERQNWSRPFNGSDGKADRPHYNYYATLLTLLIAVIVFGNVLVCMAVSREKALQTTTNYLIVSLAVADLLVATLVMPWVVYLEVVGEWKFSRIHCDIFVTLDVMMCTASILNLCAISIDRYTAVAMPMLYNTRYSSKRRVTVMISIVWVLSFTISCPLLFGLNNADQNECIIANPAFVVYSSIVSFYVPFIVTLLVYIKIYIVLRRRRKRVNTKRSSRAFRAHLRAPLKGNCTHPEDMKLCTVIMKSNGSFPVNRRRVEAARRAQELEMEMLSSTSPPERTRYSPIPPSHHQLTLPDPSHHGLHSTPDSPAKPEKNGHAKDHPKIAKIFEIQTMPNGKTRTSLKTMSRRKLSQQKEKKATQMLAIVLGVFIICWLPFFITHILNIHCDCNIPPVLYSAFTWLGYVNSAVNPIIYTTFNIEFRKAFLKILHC

| inhibition [%] | Compound |
| --- | --- |
| < 50 | Fc1ccc(COC2CCN(Cc3ccc4[nH]cnc4c3)CC2)cc1F |
| < 50 | Fc1cc(COC2CCN(Cc3ccc4[nH]cnc4c3)CC2)ccc1Cl |
| < 50 | Cn1ncc2cc(CN3CCC(OCc4ccc(F)c(F)c4)CC3)ccc21 |
| < 50 | Cc1c(Cl)cccc1NC(=O)CN1CCC(OCc2ccc(F)c(F)c2)CC1 |
| < 50 | Fc1ccc(COC2CCN(Cc3cc4ccc(Cl)cc4[nH]3)CC2)cc1F |
